According to BindingDB's records for patent US20240400586 (Haisco Pharmaceutical Group, 2024):
pIC50: −log10 of the molar value.

Molecular target: Poly [ADP-ribose] polymerase 1 (Homo sapiens, UniProt P09874)
Experiment: PARP1 Enzyme Activity Assay
Method: The histone solution in the kit was diluted 5× with 1×PBS, and 25 μL of the diluted histone solution was added to a microwell plate and incubated overnight at 4° C. After the incubation, the plate was washed three times with PBST (0.05% Tween-20). 100 μL of the blocking solution was added to the microwell plate and incubated at 25° C. for 90 minutes. After the incubation, the plate was washed three times with PBST. 2.5 μL of compounds at different concentrations diluted in test buffer and 12.5 μL of substrate mixed solution (1.25 μL 10×PARP test buffer; 1.25 μL 10×PARP test mixed solution; 2.5 μL Activated DNA, 7.5 μL double-distilled water) were added to the microwell plate. The PARP1 enzyme was diluted to 2 ng/μL, 10 μL of the diluent was added to the microwell plate, and the reaction system was incubated at 25° C. for 60 minutes.After the incubation, the plate was washed three times with PBST. Streptavidin-HRP was diluted 50× with a blocking solution, and 25 μL of the diluent was added to the microwell plate and incubated at 25° C. for 30 minutes. After the incubation, the plate was washed three times with PBST. ELISA ECL substrate A and substrate B were mixed at a ratio of 1:1 (v/v), 50 μL of the mixture was added to the microwell plate, and the chemiluminescence value was read.

Sequence of Poly [ADP-ribose] polymerase 1 (P09874 whole entry): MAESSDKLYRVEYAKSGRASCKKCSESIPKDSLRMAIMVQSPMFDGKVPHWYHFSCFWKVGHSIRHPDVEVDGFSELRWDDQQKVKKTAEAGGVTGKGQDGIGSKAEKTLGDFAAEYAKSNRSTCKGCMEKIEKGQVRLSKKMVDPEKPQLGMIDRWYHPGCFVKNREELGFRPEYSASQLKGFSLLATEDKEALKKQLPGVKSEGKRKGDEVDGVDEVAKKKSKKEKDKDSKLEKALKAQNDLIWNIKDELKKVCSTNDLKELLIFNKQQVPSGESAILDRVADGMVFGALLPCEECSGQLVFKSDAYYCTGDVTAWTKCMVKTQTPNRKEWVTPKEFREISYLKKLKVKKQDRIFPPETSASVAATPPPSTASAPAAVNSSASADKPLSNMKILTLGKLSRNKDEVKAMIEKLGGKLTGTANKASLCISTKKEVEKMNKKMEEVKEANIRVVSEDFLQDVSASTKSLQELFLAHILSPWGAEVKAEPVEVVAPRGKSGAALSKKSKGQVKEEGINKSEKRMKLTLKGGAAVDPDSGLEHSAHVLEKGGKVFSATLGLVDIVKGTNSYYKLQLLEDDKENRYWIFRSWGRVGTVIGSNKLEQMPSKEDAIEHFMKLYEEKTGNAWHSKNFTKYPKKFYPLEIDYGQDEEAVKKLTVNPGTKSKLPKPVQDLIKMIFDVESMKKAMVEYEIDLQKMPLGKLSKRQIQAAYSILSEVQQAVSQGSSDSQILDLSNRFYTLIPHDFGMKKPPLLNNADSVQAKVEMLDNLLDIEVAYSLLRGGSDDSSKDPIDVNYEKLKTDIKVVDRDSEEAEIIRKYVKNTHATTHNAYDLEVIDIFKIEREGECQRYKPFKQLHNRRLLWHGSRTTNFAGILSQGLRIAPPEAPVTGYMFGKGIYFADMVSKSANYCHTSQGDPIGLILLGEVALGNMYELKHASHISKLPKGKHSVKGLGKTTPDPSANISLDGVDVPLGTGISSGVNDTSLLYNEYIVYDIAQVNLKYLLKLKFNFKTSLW

pIC50 | SMILES
9.27 | CCC1CC2N=CC(CN3CCN(C4C=CC(C(=O)N[C@@H]5C[C@@H]5F)=NC4)CC3)=CC2NC1=O (stereo partly drawn) [US20240400586, Compound 11]
9.19 | CCC1Cc2ncc(CN3CCN(C4CN5C=C(C)NC5C=N4)CC3)cc2NC1=O (stereo not drawn) [US20240400586, Compound 15]
9.25 | CCC1=CC2N=CC(CN3CCN(c4ccc(C(=O)NC5CCC5)nc4)CC3)CC2NC1=O (stereo not drawn) [US20240400586, Compound 10]
